Source: patent US5726156A, “Cytokine regulatory agents and methods of use in pathologies and conditions associated with altered cytokine levels” (Trega Biosciences, Inc., priority 1995, dated 1998)
Values joined by “and” are separate entries in the source; they are usually repeats but may differ in a detail not shown here. Equal entries are not always repeated. Square brackets hold non-standard residues; d marks the D form. Peptide text beside a SMILES is read from it.

Tests used:
LPS-induced lethality [1] = assay: LPS-induced lethality, oral (gavage) dosing; assay type: in vivo; settings: control mice 0%
Protocol: The LPS-induced lethality studies were performed based on information reported by Rivier et al., supra, 1989. Adult female Balb/c mice were provided food and water ad libitum. Mice were administered 150 μg or 300 μg EX-2, EX-3, EX-5 or EX-6 in 100 μl saline by gavage every 4 hr for 40 hr (total doses of 1.65 mg and 3.3 mg, respectively). Control mice received 100 μl saline, alone. Immediately following the first dose of cytokine regulatory agent or saline, 0.6 mg LPS in 0.2 ml saline was administered by IP injection.

TNF-α [2] = assay: LPS-induced TNF-α levels, oral (gavage) dosing; assay type: in vivo, mice; settings: one min before 0.1 mg LPS IP
Protocol: The ability of orally administered cytokine regulatory agents to reduce LPS-induced TNF-α levels also was examined. Balb/c female mice (20 g) were administered 150 μg or 300 μg EX-2, EX-3, EX-5 or EX-6 in 100 μl saline by gavage. Control mice received 100 μl saline, alone. One min later, 0.1 mg LPS was administered by IP injection. Samples were collected and TNF-α levels were determined as described in Example III, above.
The mean TNF-α levels in the mice from each group (n=9-20) was determined and the percent reduction in TNF-α levels was calculated.

TNF-α [3] = assay: Reduction of LPS-induced TNF levels in mice (IP dosing); assay type: in vivo; settings: 150 μg/mouse IP, one min before LPS 5 mg/kg IP
Protocol: Balb/c female mice weighing approximately 20 g were placed into two groups, a control group and a treated group. Five mg/kg of LPS in 0.9% saline was administered by intraperitoneal (IP) injection into the control mice. Mice in the treated group were first injected IP with 30 μg EX-2 or 150 μg EX-3 in saline, then, one min after EX-2 or EX-3 was administered, the mice received LPS as described for the control group.
Blood samples were collected from the orbital sinus of treated and control mice at various times up to four hr after LPS was administered. The plasma was separated by centrifugation at 3000×g for 5 min, then diluted with four volumes of 1× phosphate buffer saline (pH 7.4) containing 1% bovine serum albumin. A 100 μl sample of serum was assayed by ELISA for TNF-α (Genzyme; Cambridge Mass.).
The mean (+/- SEM) TNF-α level in six mice from each group was determined and the percent reduction in TNF levels was calculated.

[4] = test system: Carageenan-induced paw swelling; assay: Carageenan-induced paw swelling; assay type: in vivo, mice; settings: 1 μg/mouse; 2 hr time point
Protocol: Carageenan-induced paw swelling was induced using a modification of the methods of Hiltz and Lipton, Peptides 11:979-982 (1990); Vinegar et al., Fed. Proc. 46:118-126 (1987); and Vinegar et al., J. Pharmacol. Expt. Therap. 166:96-103 (1969), each of which is incorporated herein by reference. Briefly, adult female Balb/c mice were anesthetized by IP injection of 7 mg/kg ketoamine and 0.6 mg/kg rompun. Foot pad thickness was measured using a spring loaded micrometer (Swiss Precision Instruments). Foot pad thickness was expressed in units of 1/100 inch. After baseline measurements were obtained, mice were injected into a hind foot pad with either 0.2 ml physiologic saline (control) or varying doses of EX-2 or EX-3 in 0.2 ml saline (treated). The first injection was followed immediately by injection of 0.02 ml of 0.15% K-carageenan (Sigma Chemical Co.; St. Louis, Mo.).
Hind foot pad thickness was measured hourly for six hr, the change in thickness was determined and the percent reduction in swelling due to treatment with EX-2 was calculated.

LPS-induced lethality [5] = assay: LPS-induced lethality (IP dosing); assay type: in vivo, mice; settings: 11 × 300 μg/mouse IP (3.3 mg), every 4 hr; 0.6 mg LPS
Protocol: These experiments were performed based on information reported by Rivier etal., Endocrinology 125:2800-2805 (1989), which is incorporated herein by reference. Adult female Balb/c mice were provided food and water ad libitum. Mice were injected IP every four hr for 40 hr with 30 to 300 μg EX-2, EX-3 or EX-4 in 0.2 ml saline (treated group) or with 0.2 ml saline, alone (control group) (10 mice per group). Immediately following the first injection, 0.6 mg LPS endotoxin in 0.2 ml saline was administered to each mouse. Following LPS injection, EX-2 or saline was administered to the treated mice or the control mice, respectively, every 4 hr for 36 hr.

LPS-induced fever = assay: LPS-induced temperature increase (fever); assay type: in vivo, rats; settings: 150 μg/kg IP; 6 hr following LPS injection
Protocol: Male Wistar rats (45-75 days old) were placed in a temperature controlled room held at 26° C., which is thermoneutral for the normal body temperature of rats, and were maintained in the room with free access to food and water for 24 hr prior to testing. On the morning of the study, rats were marked for identification and weighed. The temperature of each rat was determined by placing the animal in a regulatory cage designed to minimize stress and inserting a temperature probe (YSI probe #402) 3-5 cm into the animal's rectum. The temperature was recorded 15 sec after the reading stabilized. Measurements were repeated 1 hr later to establish a baseline temperature for each rat.
After the baseline temperatures were established, rats were injected IP with saline, IL-1β or LPS endotoxin. Rats then were injected IP with either saline (control) or various concentrations of EX-2, EX-3, or EX-4 (treated). The temperature of the rats was measured every hr for 6 hr and the inhibition by EX-2, EX-3, or EX-4 of the rise in temperature due to IL-1β or LPS was determined.
In addition, treatment with 50 or 150 μg/kg EX-2 inhibited LPS-induced fever by 45% or 52%, respectively, when measured 6 hr following LPS injection. Furthermore, treatment with 150 μg/kg EX-3 or EX-4 inhibited LPS-induced fever by 57% and 52%, respectively (Table II).

[6] = test system: arachidonic acid-induced ear swelling; assay: Arachidonic acid-induced ear swelling; assay type: in vivo, mice; settings: 100 μg/mouse IP 30 min prior to AA; 60 min after AA
Protocol: Experiments were performed using female Balb/c mice weighing 18-23 grams. Saline or 100 μg EX-2 or EX-3 was administered IP, 30 min prior to topical application of arachidonic acid (AA). A 10 μl pipet was used to apply 10 μl AA solution (100 mg/ml ethanol; Calbiochem-Novabiochem; San Diego Calif.) to the inner and outer surfaces of the right ear of each mouse. Ten μl ethanol, alone, was applied to the inner and outer surface of the left ear of each mouse. Ear thickness was measured with a hand-held spring loaded caliper immediately before and 60 min after AA application. Increase in ear thickness was calculated by subtracting the change observed in the control ear from the change observed in AA-treated ear. The value for each group (saline and control) is the average of the swelling observed in the individual mice in each group. The percent reduction of swelling is based on the swelling observed in the saline control group.

[7] = test system: morphine-induced respiratory depression; assay: Morphine-induced respiratory depression; assay type: in vivo, rabbits; settings: 10 + 20 + 20 μg/kg/rabbit iv; end of experiment (80 min)
Protocol: Male Shelton rabbits (3-4 kg) were restrained and fitted around the thorax, just behind the front limbs, with a respiration transducer (Model F-RCT; Grass Instruments; Quincy Ma). The transducer was connected to a grass polygraph via an EKG cable. An intravenous line was established for drug administration by cannulating the marginal ear vein using a 25 G butterfly needle.
Rabbit breathing was allowed to stabilize, then morphine sulfate (2 mg/kg in 0.5 ml saline) was administered by intravenous (iv) injection and respiratory rate and depth were monitored for 10 min. A second dose of morphine was administered, then, after 10 min, EX-2 or EX-3 (10 μg/kg in 0.5 ml saline) was administered, iv, and rabbits were monitored for 20 min. Two additional doses of EX-2 or EX-3 (20 μg/kg in 1.0 ml saline) were administered at 20 min intervals, i.e., 40 min and 60 min after the first morphine injection.
Results were calculated as the percent change from baseline values and are expressed as the difference of the mean value of the treated group minus the mean value of the control group at the end of the experiment (80 min).

CC(=O)N[C@@H](Cc1c[nH]cn1)C(=O)N[C@H](Cc1ccccc1)C(=O)N[C@@H](CCCNC(=N)N)C(=O)N[C@H](Cc1c[nH]c2ccccc12)C(=O)NCC(N)=O [EX-5, Ac-His- (D) Phe-Arg- (D) Trp-Gly-NH2] (Ac-H[dF]R[dW]G-NH2)
survival after LPS, oral dosing (LPS-induced lethality [1]; 3.3 mg total (300 μg by gavage every 4 hr for 40 hr)): 63% and 44% | percent reduction in TNF-α levels, oral dosing (TNF-α [2]; 300 μg by gavage): 44%

CC(=O)N[C@H](C(=O)N[C@@H](CCC(N)=O)C(=O)N[C@@H](Cc1c[nH]cn1)C(=O)N[C@H](Cc1ccccc1)C(=O)N[C@@H](CCCNC(=N)N)C(=O)N[C@H](Cc1c[nH]c2ccccc12)C(=O)NCC(N)=O)C1CCCCC1 [EX-3, Ac-(cyclohexyl)Gly-Gln-His-(D) Phe-Arg- (D) Trp-Gly-NH2]
Reduction in TNF levels (TNF-α [3]): 56% | Reduction in Carageenan-induced Paw Swelling [4]: 49% | Inhibition of LPS-induced Lethality (increase in survival vs control) (LPS-induced lethality [5]): 86% | Reduction in LPS-induced Fever (LPS-induced fever): 57% | Reduction in arachidonic acid-induced Ear Swelling [6]: 62% | Reduction in Morphine-induced Respiratory Depression [7]: 65% | percent reduction in TNF-α levels, oral dosing (TNF-α [2]; 150 μg by gavage): 49% | percent reduction in TNF-α levels, oral dosing (TNF-α [2]; 300 μg by gavage): 40%

CC(=O)N[C@@H](Cc1c[nH]cn1)C(=O)N[C@H](Cc1ccccc1)C(=O)N[C@@H](CCCNC(=N)N)C(=O)N[C@H](Cc1c[nH]c2ccccc12)C(N)=O [EX-6, Ac-His-(D)Phe-Arg-(D)TrP-NH2]
survival after LPS, oral dosing (LPS-induced lethality [1]; 1.65 mg total (150 μg by gavage every 4 hr for 40 hr)): 68%

CC(=O)N[C@H](Cc1ccccc1)C(=O)N[C@@H](CCCNC(=N)N)C(=O)N[C@H](Cc1c[nH]c2ccccc12)C(N)=O [EX-4, Ac- (D) Phe-Arg-(D) Trp-NH2]
Reduction in TNF levels (TNF-α [3]): 53% | Inhibition of LPS-induced Lethality (increase in survival vs control) (LPS-induced lethality [5]): 75% | Reduction in LPS-induced Fever (LPS-induced fever): 52%
